According to patent US20110244497A1, “METHOD FOR JUDGING SUSCEPTIBILITY OF CANCER CELLS TO ANTHRACYCLINE ANTICANCER AGENT AND COMPUTER PROGRAM” (SYSMEX CORPORATION, priority 2010, published 2011):

System: 29 types of breast cancer cell lines
Experiment: Measurement of IC50 of doxorubicin, Celltiter Glo Luminescent Cell Viability Assay
Type: cell-based
Settings: median over 29 human breast cancer cell lines; doxorubicin 0-2000 nM; growth measured 72 hours after culture-medium exchange; used as threshold sensitive/nonsensitive
Protocol: 29 types of breast cancer cell lines shown in Reference example 1 were inoculated into wells on two sheets of microplates at 5000 cells/100 uL/well using culture media containing doxorubicin at 0 nM, 250 nM, 500 nM, 750 nM, 1000 nM, and 2000 nM concentrations, followed by culturing for 24 hours.
Culture media containing doxorubicin at respective concentrations were prepared and the culture medium exchange was performed. Immediately after the culture-medium exchange, the growth of the cells on one of the microplates was measured using Celltiter Glo Luminescent Cell Viavility Assay (Cat#G7571: manufactured by Promega KK.). The remaining microplate was cultured under the culture conditions shown in Reference example 1 for 72 hours after the culture-medium exchange. Thereafter, the growth of the cells was measured using Celltiter Glo Luminescent Cell Viavility Assay (Cat#G7571: manufactured by Promega KK.).
On the basis of the number of the living cells measured, the concentration (IC50) of doxorubicin (the number of […]×100=50) was determined.

IC50: 0.392 µM
Structure (SMILES): COc1cccc2c1C(=O)c1c(O)c3c(c(O)c1C2=O)C[C@@](O)(C(=O)CO)C[C@@H]3O[C@H]1C[C@H](N)[C@H](O)[C@H](C)O1 [doxorubicin]
